Measured values as given in US10519134B2, “Pyrazole compounds and methods of making and using same” (Lundbeck La Jolla Research Center, Inc., priority 2015, dated 2019).

Tests used:
MAGL [1] = target: T1, MAGL (Mus musculus, UniProt O35678); experiment: In vitro competitive activity-based protein profiling (mouse), MAGL gel band; assay type: biochemical; settings: for IC50: mouse; for inhibition at 1 µM: read-out: MAGL % inh. 1 μM
T1 construct: Proteomes (mouse brain membrane fraction or cell lysates); from tissue; host or cells: mouse brain membrane fraction (or cell lysates)
T1 sequence (O35678 1-303): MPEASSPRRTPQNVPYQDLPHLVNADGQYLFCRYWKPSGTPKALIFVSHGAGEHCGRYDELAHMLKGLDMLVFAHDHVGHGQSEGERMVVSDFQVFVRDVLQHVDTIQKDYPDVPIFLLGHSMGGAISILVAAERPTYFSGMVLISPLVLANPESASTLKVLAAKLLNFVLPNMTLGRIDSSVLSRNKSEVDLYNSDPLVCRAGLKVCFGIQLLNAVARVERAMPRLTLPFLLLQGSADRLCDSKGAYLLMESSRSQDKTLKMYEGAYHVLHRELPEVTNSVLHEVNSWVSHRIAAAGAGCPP
Method in brief: (§1)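 Mouse brain membrane proteome or cell lysate (1.0 mg/mL protein) preincubated 30 min at 37 °C with varying inhibitor concentrations, then labelled 30 min at 37 °C with FP-Rh or HT-01 probe (50 μM stock). After SDS-PAGE, activity taken from fluorescent intensity of the MAGL and FAAH gel bands.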

FAAH = target: T2, FAAH (Mus musculus, UniProt O08914); experiment: In vitro competitive activity-based protein profiling (mouse), FAAH gel band; assay type: biochemical; settings: for IC50: mouse; for inhibition at 1 µM: read-out: FAAH % inh. 1 μM
T2 construct: Proteomes (mouse brain membrane fraction or cell lysates); from tissue; host or cells: mouse brain membrane fraction (or cell lysates)
T2 sequence (O08914 1-579): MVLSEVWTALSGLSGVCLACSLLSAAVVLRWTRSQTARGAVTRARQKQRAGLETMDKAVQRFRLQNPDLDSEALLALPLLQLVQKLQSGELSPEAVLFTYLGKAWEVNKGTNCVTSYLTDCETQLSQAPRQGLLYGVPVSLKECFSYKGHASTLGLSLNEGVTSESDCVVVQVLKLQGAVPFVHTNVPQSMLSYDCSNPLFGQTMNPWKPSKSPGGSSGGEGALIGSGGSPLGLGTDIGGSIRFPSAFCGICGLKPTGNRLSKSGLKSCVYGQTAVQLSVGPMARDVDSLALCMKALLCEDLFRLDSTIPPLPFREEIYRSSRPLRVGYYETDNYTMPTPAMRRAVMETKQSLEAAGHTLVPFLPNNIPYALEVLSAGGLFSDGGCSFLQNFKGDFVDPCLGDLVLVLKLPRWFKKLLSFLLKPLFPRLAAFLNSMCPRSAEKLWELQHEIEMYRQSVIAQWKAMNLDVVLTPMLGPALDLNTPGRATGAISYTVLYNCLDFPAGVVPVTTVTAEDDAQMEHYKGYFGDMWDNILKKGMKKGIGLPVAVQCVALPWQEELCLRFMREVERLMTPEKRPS
Method in brief: as §1

MAGL [2] = target: T1, MAGL; experiment: Mouse brain proteomes from inhibitor treated mice (oral gavage, sacrificed 4 h after administration); assay type: in vivo; settings: read-out: MAGL % inh. 5 mg/kg
Method in brief: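 Wild-type C57Bl/6J mice got compound by oral gavage in polyethylene glycol vehicle. Brain proteomes were prepared 4 h after dosing and analyzed for serine hydrolase activity.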

Row | IC50 (MAGL [1]) [nM] | inhibition at 1 µM (MAGL [1]) [%] | IC50 (FAAH) [µM] | inhibition at 1 µM (FAAH) [%] | inhibition at 5 mg/kg (MAGL [2]) [%] | SMILES
1 | ≤ 100 | ≥ 75 | 1 to 10 | 0 to 25 | 0 to 25 | CC(=O)Nc1ccn(C(=O)N2CCC3(CCCN3Cc3cc(OC4CCN(C5CC5)CC4)cc(C(F)(F)F)c3)CC2)n1 [Example 82, N-(1-(1-(3-(1-cyclopropylpiperidin-4-yloxy)-5-(trifluoromethyl)benzyl)-1,8-diazaspiro[4.5]decane-8-carbonyl)-1H-pyrazol-3-yl)acetamide]
2 | ≤ 100 | ≥ 75 | 1 to 10 | 0 to 25 | 0 to 25 | CC(=O)Nc1ccn(C(=O)N2CCC3(CCCN3Cc3ccc(C(F)(F)F)cc3Oc3cncnc3)CC2)n1 [Example 83, N-(1-(1-(2-(pyrimidin-5-yloxy)-4-(trifluoromethyl)benzyl)-1,8-diazaspiro[4.5]decane-8-carbonyl)-1H-pyrazol-3-yl)acetamide]
3 | ≤ 100 | ≥ 75 | 1 to 10 | 0 to 25 | 0 to 25 | CC(=O)Nc1ccn(C(=O)N2CCC3(CCCN3Cc3cc(Oc4cncnc4)cc(C(F)(F)F)c3)CC2)n1 [Example 84, N-(1-(1-(3-(pyrimidin-5-yloxy)-5-(trifluoromethyl)benzyl)-1,8-diazaspiro[4.5]decane-8-carbonyl)-1H-pyrazol-3-yl)acetamide]
4 | ≤ 100 | ≥ 75 | 1 to 10 | 0 to 25 | 0 to 25 | CC(=O)Nc1ccn(C(=O)N2CCC3(CCCN3Cc3ccc(C(F)(F)F)cc3Oc3nc4ccccc4s3)CC2)n1 [Example 85, N-(1-(1-(2-(benzo[d]thiazol-2-yloxy)-4-(trifluoromethyl)benzyl)-1,8-diazaspiro[4.5]decane-8-carbonyl)-1H-pyrazol-3-yl)acetamide]
5 | ≤ 100 | ≥ 75 | 1 to 10 | 0 to 25 | 0 to 25 | CC(=O)Nc1ccn(C(=O)N2CCC3(CCCN3Cc3cc(OC4CCS(=O)(=O)CC4)cc(C(F)(F)F)c3)CC2)n1 [Example 88, N-(1-(1-(3-((1,1-dioxidotetrahydro-2H-thiopyran-4-yl)oxy)-5-(trifluoromethyl)benzyl)-1,8-diazaspiro[4.5]decane-8-carbonyl)-1H-pyrazol-3-yl)acetamide]
6 | ≤ 100 | ≥ 75 | 1 to 10 | 0 to 25 | 0 to 25 | CC(=O)Nc1ccn(C(=O)N2CCC3(CCCN3Cc3cc(OCC(=O)N4CCCC4)cc(C(F)(F)F)c3)CC2)n1 [Example 90, N-(1-(1-(3-(2-oxo-2-(pyrrolidin-1-yl)ethoxy)-5-(trifluoromethyl)benzyl)-1,8-diazaspiro[4.5]decane-8-carbonyl)-1H-pyrazol-3-yl)acetamide]
7 | ≤ 100 | ≥ 75 | 1 to 10 | 0 to 25 | 50 to 75 | CC(=O)Nc1ccn(C(=O)N2CCC3(CCCN3Cc3ccc(C(F)(F)F)c(C)c3)CC2)n1 [Example 93, N-(1-(1-(3-methyl-4-(trifluoromethyl)benzyl)-1,8-diazaspiro[4.5]decane-8-carbonyl)-1H-pyrazol-3-yl)acetamide]
8 | ≤ 100 | ≥ 75 | 1 to 10 | 0 to 25 | ≥ 75 | CCc1cc(CN2CCCC23CCN(C(=O)n2ccc(NC(C)=O)n2)CC3)ccc1F [Example 95, N-(1-(1-(3-ethyl-4-fluorobenzyl)-1,8-diazaspiro[4.5]decane-8-carbonyl)-1H-pyrazol-3-yl)acetamide]
9 | ≤ 100 | ≥ 75 | 1 to 10 | 0 to 25 | 25 to 50 | CC(=O)Nc1ccn(C(=O)N2CCC3(CCCN3Cc3ccc(N4CCOCC4)c(C(F)(F)F)c3)CC2)n1 [Example 101, N-(1-(1-(4-morpholino-3-(trifluoromethyl)benzyl)-1,8-diazaspiro[4.5]decane-8-carbonyl)-1H-pyrazol-3-yl)acetamide]
10 | ≤ 100 | ≥ 75 | 1 to 10 | 0 to 25 | 0 to 25 | CC(=O)Nc1ccn(C(=O)N2CCC3(CCCN3Cc3ccc(N4CCCC4)c(C(F)(F)F)c3)CC2)n1 [Example 102, N-(1-(1-(4-(pyrrolidin-1-yl)-3-(trifluoromethyl)benzyl)-1,8-diazaspiro[4.5]decane-8-carbonyl)-1H-pyrazol-3-yl)acetamide]
11 | ≤ 100 | ≥ 75 | 1 to 10 | 0 to 25 | 0 to 25 | CC(=O)Nc1ccn(C(=O)N2CCC3(CCCN3Cc3ccc(Cl)c(N4CCOCC4)c3)CC2)n1 [Example 103, N-(1-(1-(4-chloro-3-morpholinobenzyl)-1,8-diazaspiro[4.5]decane-8-carbonyl)-1H-pyrazol-3-yl)acetamide]
12 | ≤ 100 | ≥ 75 | 1 to 10 | 0 to 25 | 0 to 25 | CC(=O)Nc1ccn(C(=O)N2CCC3(CCCN3Cc3ccc(Cl)c(N4CCCC4)c3)CC2)n1 [Example 104, N-(1-(1-(4-chloro-3-(pyrrolidin-1-yl)benzyl)-1,8-diazaspiro[4.5]decane-8-carbonyl)-1H-pyrazol-3-yl)acetamide]
13 | ≤ 100 | ≥ 75 | 1 to 10 | 0 to 25 | 25 to 50 | CC(=O)Nc1ccn(C(=O)N2CCC3(CCCN3Cc3ccc(C(F)(F)F)c(N4CCOCC4)c3)CC2)n1 [Example 105, N-(1-(1-(3-morpholino-4-(trifluoromethyl)benzyl)-1,8-diazaspiro[4.5]decane-8-carbonyl)-1H-pyrazol-3-yl)acetamide]
14 | ≤ 100 | ≥ 75 | 1 to 10 | 0 to 25 | 25 to 50 | CC(=O)Nc1ccn(C(=O)N2CCC3(CCCN3Cc3ccc(C(F)(F)F)c(N4CCCC4)c3)CC2)n1 [Example 106, N-(1-(1-(3-(pyrrolidin-1-yl)-4-(trifluoromethyl)benzyl)-1,8-diazaspiro[4.5]decane-8-carbonyl)-1H-pyrazol-3-yl)acetamide]
15 | 100 to 1000 | ≥ 75 | 1 to 10 | 0 to 25 | 0 to 25 | CC(=O)Nc1ccn(C(=O)N2CCC3(CCCN3Cc3ccc(C(F)(F)F)c(C(N)=O)c3)CC2)n1 [Example 107, 5-((8-(3-acetamido-1H-pyrazole-1-carbonyl)-1,8-diazaspiro[4.5]decan-1-yl)methyl)-2-(trifluoromethyl)benzamide]
16 | ≤ 100 | ≥ 75 | 1 to 10 | 0 to 25 | 0 to 25 | CC(=O)Nc1ccn(C(=O)N2CCC3(CCCN3Cc3ccc(C(N)=O)c(C(F)(F)F)c3)CC2)n1 [Example 109, 4-((8-(3-acetamido-1H-pyrazole-1-carbonyl)-1,8-diazaspiro[4.5]decan-1-yl)methyl)-2-(trifluoromethyl)benzamide]
17 | ≤ 100 | ≥ 75 | 1 to 10 | 0 to 25 | 50 to 75 | CS(=O)(=O)Nc1ccn(C(=O)N2CCN(Cc3cccc(Cl)c3N3CC[C@H](CF)C3)CC2)n1 [Example 121, (S)-N-(1-(4-(3-chloro-2-(3-(fluoromethyl)pyrrolidin-1-yl)benzyl)piperazine-1-carbonyl)-1H-pyrazol-3-yl) methanesulfonamide]
18 | ≤ 100 | ≥ 75 | 1 to 10 | 0 to 25 | ≥ 75 | CS(=O)(=O)Nc1ccn(C(=O)N2CCN(Cc3ccc(Cl)cc3N3CCCC3)CC2)n1 [Example 127, N-(1-(4-(4-chloro-2-(pyrrolidin-1-yl)benzyl)piperazine-1-carbonyl)-1H-pyrazol-3-yl) methanesulfonamide]
